According to paper PMC9497135, “Structure-Based Study to Overcome Cross-Reactivity of Novel Androgen Receptor Inhibitors” (Cells, 2022):

Tests used:
[1] = tested on: prostate-specific antigen (PSA) expression in LNCaP cells; assay: PSA assay in LNCaP cells; type: cell-based; conditions: Homo sapiens, 72 h, with R1881, 3 days
Method: The PSA assay was performed in parallel with the previous reporter eGFP assay and using the same plates. After 3 days incubation of LNCAP cells with R1881 and the test compound, 150 µL of the media was taken from each well and added to 150 µL of PBS. PSA levels were then evaluated using the Cobas e 411 analyzer instrument (Roche Diagnostics) according to the manufacturer’s instructions.

T878A-AR mutant = biological target: T1, T878A-AR mutant (Homo sapiens, UniProt P10275, T878A); assay: Luciferase reporter assay, PC3 cells transfected with T878A-AR; type: cell-based; conditions: in the presence and absence of R1881
T1 construct: Full-length human wild type AR was cloned into pcDNA3.1 expression plasmid; expressed in transfected cells; host or cells: PC3
T1 sequence (P10275 1-920 T878A): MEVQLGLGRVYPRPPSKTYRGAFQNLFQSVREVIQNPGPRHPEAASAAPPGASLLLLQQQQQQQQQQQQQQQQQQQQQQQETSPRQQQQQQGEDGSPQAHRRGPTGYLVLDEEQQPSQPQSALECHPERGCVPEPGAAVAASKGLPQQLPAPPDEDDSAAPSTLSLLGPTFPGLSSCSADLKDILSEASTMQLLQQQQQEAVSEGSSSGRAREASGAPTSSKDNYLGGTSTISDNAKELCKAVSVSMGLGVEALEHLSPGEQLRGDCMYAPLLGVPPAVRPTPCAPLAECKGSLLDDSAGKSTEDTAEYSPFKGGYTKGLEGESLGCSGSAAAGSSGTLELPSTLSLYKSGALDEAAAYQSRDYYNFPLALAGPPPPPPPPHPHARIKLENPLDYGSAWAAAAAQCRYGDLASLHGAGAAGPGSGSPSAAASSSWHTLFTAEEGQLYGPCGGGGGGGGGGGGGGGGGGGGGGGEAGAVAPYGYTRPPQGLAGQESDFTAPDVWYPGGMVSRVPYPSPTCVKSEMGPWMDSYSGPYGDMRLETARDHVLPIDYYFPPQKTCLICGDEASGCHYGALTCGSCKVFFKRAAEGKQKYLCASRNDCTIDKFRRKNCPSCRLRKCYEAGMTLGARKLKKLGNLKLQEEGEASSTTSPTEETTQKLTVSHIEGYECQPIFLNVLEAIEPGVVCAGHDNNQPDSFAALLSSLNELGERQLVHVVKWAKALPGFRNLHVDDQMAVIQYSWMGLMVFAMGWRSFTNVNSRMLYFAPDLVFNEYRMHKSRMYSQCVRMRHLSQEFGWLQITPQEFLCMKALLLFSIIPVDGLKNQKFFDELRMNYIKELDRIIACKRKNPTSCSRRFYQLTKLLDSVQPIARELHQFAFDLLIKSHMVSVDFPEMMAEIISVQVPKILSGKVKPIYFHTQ
Method: Full-length human wild type AR was cloned into pcDNA3.1 expression plasmid (Invitrogen, Waltham, MA, USA) with a CMV promoter. The T878A mutant (T878A-AR) was generated with the Quikchange Mutagenesis Kit (Stratagene, San Diego, CA, USA) using hARWT plasmid as a template. Androgen-starved PC3 cells were seeded in 96-well plates (3000 cells/well) in RPMI 1640 + 5% CSS for 24 h followed by transfection with 50 ng of hARWT or hART878A along with 50 ng of ARR3tk-luciferase reporter construct (100 ng total plasmid DNA) and 0.3 µL/well TransIT20/20 transfection reagent (TT2020, Mirus, Madison, Wisconsin, WI, USA) for 48 h. […] Cell lysis was carried out with 60 µL 1X passive lysis buffer/well (Promega, Madison, Wisconsin, WI, USA). The luminescence from 20 µL of cell lysate and 50 µL of Luciferase assay reagent (Promega, Madison, Wisconsin, WI, USA) was recorded on a TECAN M200pro plate reader.

[2] = tested on: endogenous wild type AR in R1-AD1 cells; assay: AR transcriptional activity in R1-AD1 cells; type: cell-based, human; conditions: 0.1 nM R1881

COc1c(F)cccc1-c1csc(N2CCOCC2)n1 [VPC14368, 4-(4-(3-fluoro-2-methoxyphenyl)thiazol-2-yl)morpholine]
IC50 [1]: 130 nM
Concentration above which transcriptional activation of the T878A AR mutant is induced (T878A-AR mutant): higher than 0.4 µM
Agonistic effect in R1-AD1 cells [2]: not observed
